Results: paper PMC9069992 (Journal of the American Chemical Society, 2022)
Blank lines part the entries; values can stand above or below the compound they belong to.

What was measured:
carboxylesterase (CES1) = target: T1, carboxylesterase (CES1) (Homo sapiens, UniProt P23141); test: Cell free hydrolysis by carboxylesterase; format: biochemical; details: cell free assay, Figure S13
T1 sequence (P23141 18-567): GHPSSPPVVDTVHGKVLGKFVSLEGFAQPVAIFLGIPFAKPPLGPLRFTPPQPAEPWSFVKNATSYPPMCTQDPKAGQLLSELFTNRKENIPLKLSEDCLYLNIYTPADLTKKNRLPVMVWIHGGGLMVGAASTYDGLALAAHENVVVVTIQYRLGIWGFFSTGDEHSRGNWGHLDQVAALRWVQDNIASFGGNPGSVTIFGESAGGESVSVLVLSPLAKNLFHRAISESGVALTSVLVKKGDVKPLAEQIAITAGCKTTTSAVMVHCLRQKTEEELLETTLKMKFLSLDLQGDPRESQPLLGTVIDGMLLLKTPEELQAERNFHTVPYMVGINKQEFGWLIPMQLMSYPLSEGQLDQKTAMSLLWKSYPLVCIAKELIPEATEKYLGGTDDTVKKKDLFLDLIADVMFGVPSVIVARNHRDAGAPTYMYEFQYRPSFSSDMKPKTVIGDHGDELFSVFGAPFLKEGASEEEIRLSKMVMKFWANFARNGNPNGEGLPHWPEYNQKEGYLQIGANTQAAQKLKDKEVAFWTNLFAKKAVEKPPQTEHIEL

NRAS = test: ICC staining of NRAS distribution in MCF-7 cells; format: cell-based, Homo sapiens; details: MCF-7, 10 μM, 30 min, ICC staining with NRAS antibody, Figure 3C
GA of HeLa cells = test: CLSM / single cell imaging of fluorescence accumulation at Golgi apparatus; format: cell-based, Homo sapiens; details: for accumulation at / targeting of GA (in words): CLSM, fluorescence at GA, Figures S16, S30A, S33, S35-S44; for effect of thioesterase inhibitor on GA accumulation of C6-NBD-Ceramide: Figures S11, S12; for effect of thioesterase inhibitor on accumulation of 1 at GA: by itself or in combination, Figures S4, S9, S10
[1] = test system: GA of HeLa, Saos-2, HEK293, MCF-7, HS-5, SJSA-1, HepG2, B16F10, S2 cells; test: CLSM of GA targeting in various cell lines; format: cell-based, Homo sapiens, Mus musculus, Drosophila; details: 10 μM, 8 min, Figure 2B
[2] = test system: neutrophils (polymorphonuclear leukocytes); test: GA localization in primary cells; format: cell-based; details: Figure S24
[3] = Critical micelle concentration; format: physicochemical; details: Figure 1C
TEM of self-assembly = format: physicochemical; details: 20 μM, Figure S43

hydrolysis by carboxylesterase (CES1) (in words) (carboxylesterase (CES1)): able to catalyze the hydrolysis of 1
critical micelle concentration (CMC) [3]: 2.1 µM
SMILES: CC(=O)SCCNC(=O)[C@@H](Cc1ccccc1)NC(=O)[C@@H](Cc1ccccc1)NC(=O)CCNc1ccc([N+](=O)[O-])c2nonc12 [compound 1]
intracellular distribution of NRAS after pretreatment (in words) (NRAS): relocates from mainly plasma membrane to overwhelmingly GA
accumulation at / targeting of GA (in words) (GA of HeLa cells): accumulates primarily at GA
time after addition until GA becomes distinguishable (GA of HeLa cells; Figures S1, S2, video S1): less than 1 min
dependence on clathrin-mediated endocytosis at 2 μM (GA of HeLa cells; HeLa treated with chlorpromazine, 2 μM of 1, Figure S8): hardly
dependence on clathrin-mediated endocytosis at 10 μM (GA of HeLa cells; HeLa treated with chlorpromazine, 10 μM of 1, Figure S8): only slightly
time until fluorescence plateaus outside GA (GA of HeLa cells; HeLa, 10 μM, 60 min, single cell imaging analysis, Figure 1B): > 45 min
enhancement of fluorescence intensity at GA from 1 minute to 8 minutes (GA of HeLa cells; HeLa, Figure S15): at least 3 times
targeting GA of various cells (in words) [1]: able to target GA of various cells from different organisms
entry into primary cells and localization (in words) [2]: localizes at GA
self-assembly seen by TEM (in words) (TEM of self-assembly): self-assembles into nanoparticles and nanofibers

SMILES: CCCCCCCCCCCCC/C=C/[C@@H](O)[C@H](CO)NC(=O)CCCCCNc1ccc([N+](=O)[O-])c2nonc12 [C6-NBD-ceramide, C6-NBD-Ceramide, reference compound]
accumulation at / targeting of GA (in words) (GA of HeLa cells): shows dim fluorescence over 16 minutes

SMILES: CC(C)(C)C1CCN(C(=O)n2ncc(C(O)(c3ccccc3)c3ccccc3)n2)CC1 [ML211, reference compound]
effect of thioesterase inhibitor on GA accumulation of C6-NBD-Ceramide (GA of HeLa cells): cannot block the GA accumulation
effect of thioesterase inhibitor on accumulation of 1 at GA (GA of HeLa cells): efficiently block 1 accumulating at GA

SMILES: CN(CCCCCCNc1ccnc2cc(Cl)ccc12)CCCCCCNc1ccnc2cc(Cl)ccc12 [DC661, reference compound]
effect of thioesterase inhibitor on GA accumulation of C6-NBD-Ceramide (GA of HeLa cells): cannot block the GA accumulation
effect of thioesterase inhibitor on accumulation of 1 at GA (GA of HeLa cells): efficiently block 1 accumulating at GA
